Values quoted from earlier work, collected in patent publication US8524749B2, “Controlled release compositions of tizanidine” (ALZA Corporation, priority 2007, dated 2013).

Settings: doses of 0.5-0.7 g/kg alcohol; comparison data

## CCO [alcohol]
  Peak impairment in Power of Attention, decrement compared to baseline: about 150 msec
